Patent publication US11673910B2, “Macrolides with modified desosamine sugars and uses thereof” (Zikani Therapeutics, Inc., priority 2017, dated 2023)
In brackets after ≈: the same amount, converted by molar mass.

Experiments:
Format in all cases: cell-based
E. coli strain MP-4 = experiment: Broth dilution MIC determination (CLSI) against E. coli strain MP-4; conditions: Escherichia coli, MP4
Outline: (§1)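 Activity is reported in categories: ≤4 mg/L as "+++", 8 to below 32 mg/L as "++", and 32 mg/L or more as "+". Testing followed CLSI broth dilution procedures.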

[1] = test system: K. pneumoniae strain MP-548; experiment: Broth dilution MIC determination (CLSI) against K. pneumoniae strain MP-548; conditions: Klebsiella pneumoniae, MP548
Outline: as §1

S. aureus strain MP-12 = experiment: Broth dilution MIC determination (CLSI) against S. aureus strain MP-12; conditions: Staphylococcus aureus, MP12, strain MP-12
Outline: as §1

[2] = test system: P. aeruginosa strain MP-3; experiment: Broth dilution MIC determination (CLSI) against P. aeruginosa strain MP-3; conditions: Pseudomonas aeruginosa, MP3
Outline: as §1

[3] = test system: A. baumannii strain MP-15; experiment: Broth dilution MIC determination (CLSI) against A. baumannii strain MP-15; conditions: Acinetobacter baumannii, MP15
Outline: as §1

Row | SMILES | MIC (E. coli strain MP-4) [µg/mL] | MIC [1] [µg/mL] | MIC (S. aureus strain MP-12) [µg/mL] | MIC [2] [µg/mL] | MIC [3] [µg/mL]
1 | CC[C@H]1OC(=O)[C@@](C)(F)C(=O)[C@H](C)[C@@H](O[C@@H]2OC(CNc3ccc(-c4cncnc4)cc3)CC(N(C)C)C2O)[C@](C)(OC)C[C@@H](C)C(=O)[C@H](C)[C@H]2NC(=O)O[C@@]21C (stereo partly drawn) [Compound 94] | ≥ 32 | ≥ 32 | ≤ 4 | ≥ 32 | 8 to 32 (≈ 10 to 40 µM)
2 | CC[C@H]1OC(=O)C(C)C(=O)[C@H](C)[C@@H](OC2OC(CN(C)C34CC(C3)C4)CC(N(C)C)C2O)[C@](C)(OC)C[C@@H](C)CN[C@H](C)[C@H]2NC(=O)O[C@@]21C (stereo partly drawn) [Compound 152, 3-Descladinosyl-3-oxo-6-O-methyl-N9a-desmethyl-11,12-dideoxy-12,11-(oxycarbonylimino)-6′-bicyclo[1.1.1]pentanylmethylamino Azithromycin] | ≥ 32 | ≥ 32 | 8 to 32 (≈ 11.3 to 45.1 µM) | ≥ 32 | 8 to 32 (≈ 11.3 to 45.1 µM)
3 | CC[C@H]1OC(=O)C(C)C(=O)[C@H](C)[C@@H](O[C@@H]2OC(CNCc3ccc(C(C)(C)C)cc3)CC(N(C)C)C2O)[C@](C)(OC)C[C@@H](C)CN[C@H](C)[C@H]2NC(=O)O[C@@]21C (stereo partly drawn) [Compound 37] | ≥ 32 | ≥ 32 | ≥ 32 | ≥ 32 | ≥ 32
4 | CC[C@H]1OC(=O)C(C)C(=O)[C@H](C)[C@@H](OC2OC(CNCC(C)(C)O)CC(N(C)C)C2O)[C@](C)(OC)C[C@@H](C)CN[C@H](C)[C@H]2NC(=O)O[C@@]21C (stereo partly drawn) [Compound 113, 3-Descladinosyl-3-oxo-6-O-methyl-N9a-desmethyl-11,12-dideoxy-12,11-(oxycarbonylimino)-6′-(2-methylpropan-2-ol-amino) Azithromycin] | 8 to 32 (≈ 11.4 to 45.7 µM) | ≥ 32 | ≥ 32 | ≥ 32 | ≥ 32
5 | CC[C@H]1OC(=O)C(C)C(=O)[C@H](C)[C@@H](OC2OC(CN(C)OC)CC(N(C)C)C2O)[C@](C)(OC)C[C@@H](C)CN[C@H](C)[C@H]2NC(=O)O[C@@]21C (stereo partly drawn) [Compound 145] | 8 to 32 (≈ 11.9 to 47.6 µM) | 8 to 32 (≈ 11.9 to 47.6 µM) | ≥ 32 | ≥ 32 | ≥ 32
6 | CO[C@]1(C)C[C@@H](C)CN[C@H](C)[C@H]2NC(=O)O[C@]2(C)[C@@H](C)OC(=O)C(C)C(=O)[C@H](C)[C@H]1OC1OC(CNC2CCC2)CC(N(C)C)C1O (stereo partly drawn) [Compound 147, 3-Descladinosyl-3-oxo-6-O-methyl-N9a-desmethyl-11,12-dideoxy-12,11-(oxycarbonylimino)-6′-cyclobutylamino-13-methyl Azithromycin] | 8 to 32 (≈ 12 to 47.8 µM) | ≥ 32 | ≥ 32 | ≥ 32 | ≥ 32
7 | CC[C@H]1OC(=O)C(C)C(=O)[C@H](C)[C@@H](OC2OC(CN3CCN(C(C)=O)CC3)CC(N(C)C)C2O)[C@](C)(OC)C[C@@H](C)CN[C@H](C)[C@H]2NC(=O)O[C@@]21C (stereo partly drawn) [Compound 125, 3-Descladinosyl-3-oxo-6-O-methyl-N9a-desmethyl-11,12-dideoxy-12,11-(oxycarbonylimino)-6′-(1-(4-acetyl)-piperazinyl) Azithromycin] | ≥ 32 | ≥ 32 | ≥ 32 | ≥ 32 | ≥ 32
8 | CC[C@H]1OC(=O)[C@@]2(C)CCO[C@](C)(C[C@@H](C)CN[C@H](C)[C@H]3NC(=O)O[C@@]31C)[C@H](O[C@@H]1O[C@H](CNCC3CC3)C[C@H](N(C)C)[C@H]1O)[C@@H](C)C2=O [Compound 197] | ≥ 32 | ≥ 32 | ≥ 32 | ≥ 32 | ≥ 32
9 | CC[C@H]1OC(=O)C(C)C(=O)[C@H](C)[C@@H](O[C@@H]2O[C@H](CCc3ccccc3)CC(N(C)C)[C@H]2O)[C@](C)(OC)C[C@@H](C)CN[C@H](C)[C@H]2NC(=O)O[C@@]21C (stereo partly drawn) [Compound 186, 3-Descladinosyl-3-oxo-6-O-methyl-N9a-desmethyl-11,12-dideoxy-12,11-(oxycarbonylimino)-6′-benzyl Azithromycin] | ≤ 4 | 8 to 32 (≈ 11.4 to 45.5 µM) | ≤ 4 | ≥ 32 | 8 to 32 (≈ 11.4 to 45.5 µM)
10 | CC[C@H]1OC(=O)C(C)C(=O)[C@H](C)[C@@H](O[C@@H]2OC(CNCc3ccc(C#N)cc3)CC(N(C)C)C2O)[C@](C)(OC)C[C@@H](C)CN[C@H](C)[C@H]2NC(=O)O[C@@]21C (stereo partly drawn) [Compound 40] | ≤ 4 | ≥ 32 | ≥ 32 | ≥ 32 | ≥ 32
11 | CC[C@H]1OC(=O)C(C)C(=O)[C@H](C)[C@@H](O[C@@H]2OC(CNCc3cn(-c4cncnc4)nn3)CC(N(C)C)C2O)[C@](C)(OC)C[C@@H](C)CN[C@H](C)[C@H]2NC(=O)O[C@@]21C (stereo partly drawn) [Compound 24] | ≥ 32 | ≥ 32 | ≥ 32 | ≥ 32 | ≥ 32
12 | CC[C@H]1OC(=O)[C@@]2(C)CCOC(C)(C[C@@H](C)CN(C)[C@H](C)[C@H]3NC(=O)O[C@@]31C)[C@H](O[C@@H]1OC(C)CC(N(C)C)C1O)[C@@H](C)C2=O (stereo partly drawn) [Compound 223] | ≤ 4 | ≤ 4 | ≤ 4 | ≥ 32 | 8 to 32 (≈ 12.5 to 50 µM)

Other lines, results leading:

Row | MIC (E. coli strain MP-4) [µg/mL] | MIC [1] [µg/mL] | MIC (S. aureus strain MP-12) [µg/mL] | MIC [2] [µg/mL] | MIC [3] [µg/mL] | SMILES
13 | ≤ 4 | 8 to 32 (≈ 12.2 to 48.8 µM) | ≤ 4 | ≥ 32 | 8 to 32 (≈ 12.2 to 48.8 µM) | CC[C@H]1OC(=O)C(C)C(=O)[C@H](C)[C@@H](O[C@@H]2O[C@H](CC(C)C)CC(N(C)C)[C@H]2O)[C@](C)(OC)C[C@@H](C)CN[C@H](C)[C@H]2NC(=O)O[C@@]21C (stereo partly drawn) [Compound 184, 3-Desdadinosyl-3-oxo-6-O-methyl-N9a-desmethyl-11,12-dideoxy-12,11-(oxycarbonylimino)-6′-isopropyl Azithromycin]
14 | ≤ 4 | ≥ 32 | ≥ 32 | ≥ 32 | ≥ 32 | CC[C@H]1OC(=O)C(C)C(=O)[C@H](C)[C@@H](O[C@@H]2OC(CNCc3ccc(F)cn3)CC(N(C)C)C2O)[C@](C)(OC)C[C@@H](C)CN[C@H](C)[C@H]2NC(=O)O[C@@]21C (stereo partly drawn) [Compound 38]
15 | ≤ 4 | ≤ 4 | 8 to 32 (≈ 11.7 to 46.9 µM) | ≥ 32 | 8 to 32 (≈ 11.7 to 46.9 µM) | CC[C@H]1OC(=O)C(C)C(=O)[C@H](C)[C@@H](O[C@@H]2O[C@H](CNC3CC3)CC(N(C)C)[C@H]2O)[C@](C)(OC)C[C@@H](C)CN(C)[C@H](C)[C@H]2NC(=O)O[C@@]21C (stereo partly drawn) [Compound 161, 3-Descladinosyl-3-oxo-6-O-methyl-11,12-dideoxy-12,11-(oxycarbonylimino)-6′-cyclopropylamino Azithromycin]
16 | ≤ 4 | ≥ 32 | ≥ 32 | ≥ 32 | ≥ 32 | CC[C@H]1OC(=O)C(C)C(=O)[C@H](C)[C@@H](O[C@@H]2OC(CNCc3ccc4nccnc4c3)CC(N(C)C)C2O)[C@](C)(OC)C[C@@H](C)CN[C@H](C)[C@H]2NC(=O)O[C@@]21C (stereo partly drawn) [Compound 23]
17 | ≤ 4 | ≥ 32 | ≥ 32 | ≥ 32 | ≥ 32 | CC[C@H]1OC(=O)C(C)C(=O)[C@H](C)[C@@H](O[C@@H]2OC(CNCc3ccc(N(C)C)cc3)CC(N(C)C)C2O)[C@](C)(OC)C[C@@H](C)CN[C@H](C)[C@H]2NC(=O)O[C@@]21C (stereo partly drawn) [Compound 44]
18 | ≤ 4 | ≥ 32 | ≥ 32 | ≥ 32 | ≥ 32 | CC[C@H]1OC(=O)C(C)C(=O)[C@H](C)[C@@H](O[C@@H]2OC(CNCc3ccc(F)cc3F)CC(N(C)C)C2O)[C@](C)(OC)C[C@@H](C)CN[C@H](C)[C@H]2NC(=O)O[C@@]21C (stereo partly drawn) [Compound 31]
